Measurements from patent US9913838B2, “Methods of treating cancer using compositions comprising perillyl alcohol derivative” (NEONC TECHNOLOGIES INC., priority 2010, dated 2018).
“Also recorded” adds a separate entry of the source.

Key:
[1] = tested on: TMZ resistant (U251TR) U251 cells; experiment: Colony forming assay, TMZ resistant U251TR cells; format: cell-based, human; conditions: in words
Description: (§1) Colony forming assays were carried out after cells were treated with TMZ alone, POH alone, and the TMZ-POH conjugate. […] Cancer Lett. 2011 Mar. 28; 302(2):100-8.

a variant of MDA-MB-231 = experiment: In vitro sensitivity of the cell line used in vivo; format: cell-based; conditions: Homo sapiens, in vitro sensitivity to TMZ
[2] = tested on: TMZ sensitive (U251) cells; experiment: Colony forming assay, TMZ sensitive U251 cells; format: cell-based, human; conditions: in words
Description: as §1

MDA-MB-468 = experiment: Colony formation assay, MDA-MB-468; conditions: for IC50: Homo sapiens, MDA-MB-468, 48 h, read-out: IC50 (concentration required to decrease colony formation by 50%)
Description: (§2) Depending on the cell line (and plating efficiency), 200-350 cells were seeded into each well of a 6-well plate. […] Thereafter, the drugs were removed, fresh growth medium was added, and the cells were kept in culture undisturbed for 12-16 days, during which time the surviving cells spawned colonies of descendants. Colonies (defined as groups of >50 cells) were visualized by staining for 4 hours with 1% methylene blue (in methanol), and then were counted.
In the case of O6-BG treatment, cells were pretreated with 10 μM O6-BG for one hour before addition of TMZ or TMZ-POH. After 24 hours, another 10 μM O6-BG was added to the medium. Another 24 hours later, drug-laced medium was removed, and fresh medium without drugs was added. Thereafter, cells remained undisturbed until staining with methylene blue.
The cytotoxic potency of TMZ-POH, was analyzed by colony formation assay (CFA) in a variety of human breast cancer cell lines and compared to the cytotoxicity of TMZ. We used estrogen receptor positive cells MCF7 and T47D, the triple-negative lines MDA-MB-231, MDA-MB-468, and HCC-1937, and a brain-seeking variant of the 231 cell line, MDA-MB-231-br.

[3] = tested on: D3H2LN cells implanted into the brains; experiment: Intracranial breast cancer tumor model in nude mice; format: in vivo; conditions: for median survival: TMZ-POH s.c., TMZ via gavage
Excerpt: In FIG. 27A, all surviving animals were imaged again on days 21, 28, and 36. […] Arrow labeled Rx indicates the time period of treatment.
All animal protocols were approved by the Institutional Animal Care and Use Committee (IACUC) of University of Southern California, and all rules and regulations were followed during experimentation on animals. Athymic mice (Harlan, Inc., Indianapolis, Ind.) were implanted intracranially with 2×10^5 cells. A subline of MDA-MB-231 cells called D3H2LN was used, which was transfected with the firefly luciferase gene and had been selected for aggressive growth and metastasis in vivo. Ten days after intracranial implantation, efficient tumor take was confirmed in all animals via non-invasive whole-body bioluminescent imaging. For this purpose, mice were intravenously injected with 50 mg/kg D-Luciferin (Perkin Elmer, Waltham, Mass.) and imaged using the Xenogen IVIS-200 Imaging System (Caliper/Perkin Elmer). Images were analyzed by region-of-interest (ROI) analysis using the Living Image software package (Caliper/Perkin Elmer) to quantitate light output (radiance, i.e., photons per second per square centimeter per steradian).
Group 1 was the control group that received vehicle only (45% glycerol, 45% ethanol, 10% DMSO) via subcutaneous injection. Group 2 was the experimental group that received 25 mg/kg TMZ-POH via subcutaneous (s.c.) injection. Group 3 was the comparison group and animals received 25 mg/kg TMZ via gavage. Treatment was once per day for a period of 10 days (i.e., 10 treatments total). Thereafter, all surviving animals were imaged again, once per week.
We used D3H2LN cells, which are a bioluminescent variant of the MDA-MB-231 cell line with aggressive tumor growth in mice. These cells were implanted into the brains of nude mice, and 10 days later all animals were imaged for luciferase expression in order to confirm efficient tumor take.
Animals were distributed into three groups and treated once daily for 10 days with vehicle alone (control), 25 mg/kg TMZ-POH, or 25 mg/kg TMZ.

[4] = in vitro and in vivo; cited from earlier work
MGMT-negative cell lines = experiment: Colony formation assay, MGMT-negative breast cancer cell lines (summary); format: cell-based, human
Description: as §2

[5] = tested on: tumor brain endothelial cells (TuBEC); experiment: MTT cytotoxicity assay, tumor brain endothelial cells; format: cell-based; conditions: in words
Excerpt: (§3) Cancer Lett. 2011 Mar. 28; 302(2):100-8.

[6] = tested on: USC-04 glioma cancer stem cells; experiment: cells; conditions: read-out: cytotoxicity with 1050
Description: MTT cytotoxicity assays were carried out after cells were treated with the TMZ alone, POH alone, or the TMZ-POH conjugate. The MTT cytotoxicity assays were carried out as described in Chen T C, et al. Green tea epigallocatechin gallate enhances therapeutic efficacy of temozolomide in orthotopic mouse glioblastoma models. Cancer Lett. 2011 Mar. 28; 302(2):100-8.

γ-H2AX [7] = experiment: Western blot of DNA damage marker in MDA-MB-231 cells; format: cell-based, human; conditions: MDA-MB-231, 50 μM, time course of 72 hours; in words
Description: (§4) Actin was used as a loading control.
(§5) Total cell lysates were analyzed by Western blot analysis as described in P. Pyrko et al. Downregulation of survivin expression and concomitant induction of apoptosis by celecoxib and its non-cyclooxygenase-2-inhibitory analog, dimethyl-celecoxib (DMC), in tumor cells in vitro and in vivo. Mol Cancer 5 (2006) 19. The primary antibodies were purchased from Cell Signaling Technology (Beverly, Mass.) or Santa Cruz Biotechnology, Inc. (Santa Cruz, Calif.) and used according to the manufacturers' recommendations. All immunoblots were repeated at least once to confirm the results.

CHOP = experiment: Western blot of ER stress in TMZ sensitive and resistant U251 glioma cells; format: cell-based, human
Description: Western blots were performed after TMZ sensitive and resistant glioma cells were treated with the TMZ-POH conjugate for 18 hr.

[8] = tested on: brain endothelial cells (BEC; confluent and subconfluent); experiment: MTT cytotoxicity assay, brain endothelial cells; format: cell-based; conditions: in words
Excerpt: as §3

Lipophilicity = format: physicochemical; conditions: data not shown; in words
normal astrocytes = experiment: MTT cytotoxicity assay, normal astrocytes; format: cell-based; conditions: in words
Excerpt: as §3

[9] = tested on: MGMT-positive breast cancer cell lines; experiment: Colony formation assay, MGMT-positive breast cancer cell lines (summary); format: cell-based; conditions: Homo sapiens; range over the three MGMT-positive lines
Description: as §2

γ-H2AX [10] = experiment: Western blot of DNA damage marker in MCF7 cells; format: cell-based, human; conditions: MCF-7, 50 μM, 48 hours, in words
Description: as §4, §5

[11] = 25 mg/kg once daily for 10 days

Question: For `Cn1nnc2c(C(N)=O)ncn2c1=O` [TMZ, temozolomide, reference compound], which “cytotoxicity (colony forming assay)” value [1] is on record?
Answer: minimal cytotoxicity

Question: What about the IC50 (a variant of MDA-MB-231) of the same compound?
Answer: < 10 µM

Question: And the “cytotoxicity (colony forming assay)” value [2]?
Answer: demonstrated cytotoxicity

Question: What about the IC50 (MDA-MB-468) of the same compound?
Answer: 195 µM

Question: What about the “additional survival after the termination of treatment” value [3, 11] of the same compound?
Answer: 8 days

Question: What about the median survival [3, 11] of the same compound?
Answer: 28 days

Question: And the half-life [4]?
Answer: 1 to 2 h

Question: For `C=C(C)[C@@H]1CC=C(COC(=O)NC(=O)c2ncn3c(=O)n(C)nnc23)CC1` [TMZ-POH], which IC50 (MGMT-negative cell lines; Homo sapiens, range over MGMT-negative cell lines) is on record?
Answer: 1.2 to 4.6 µM

Question: What about the “active in the range of” value (MGMT-negative cell lines; MGMT-negative cells) of the same compound?
Answer: 1 to 5 µM

Question: And the “cytotoxicity (MTT assay)” value [5]?
Answer: did not induce significant cytotoxicity

Question: What about the IC50 [6] of the same compound?
Answer: 150 µM

Question: What about the “levels of γ-H2AX” value (γ-H2AX [7]) of the same compound?
Answer: substantially increased levels of γ-H2AX; also recorded: much stronger as compared to TMZ

Question: What about the “concentration at which activation of the proapoptic protein CHOP was shown (as low as)” value (CHOP; 18 hr treatment) of the same compound?
Answer: 60 µM

Question: What about the “ER stress (ERS)” value (CHOP; TMZ sensitive and resistant U251, 18 hr, in words) of the same compound?
Answer: induces ER stress

Question: And the “cytotoxicity (colony forming assay)” value [1]?
Answer: demonstrated cytotoxicity; also recorded: substantially greater potency compared to POH alone

Question: And the “cytotoxicity (MTT assay)” value ([8]; confluent BEC)?
Answer: did not induce significant cytotoxicity

Question: What about the “cytotoxicity (MTT assay)” value ([8]; subconfluent BEC, high concentrations) of the same compound?
Answer: Mild to moderate cytotoxicity

Question: And the lipophilicity (Lipophilicity)?
Answer: increased over TMZ

Question: And the “cytotoxicity (MTT assay)” value (normal astrocytes)?
Answer: not towards normal astrocytes; also recorded: did not induce significant cytotoxicity

Question: What about the IC50 [9] of the same compound?
Answer: 31 to 33 µM

Question: What about the “cytotoxicity (colony forming assay)” value [2] of the same compound?
Answer: demonstrated cytotoxicity; also recorded: substantially greater potency compared to POH alone

Question: And the “phosphorylation of H2AX” value (γ-H2AX [10]; without O6-BG)?
Answer: no increased phosphorylation of H2AX

Question: And the “levels of γ-H2AX” value (γ-H2AX [10]; pre-treated with O6-BG (30 μM))?
Answer: increased levels of γ-H2AX became readily apparent

Question: And the IC50 (MDA-MB-468)?
Answer: 31 µM

Question: And the “Differential (−fold)” value (MDA-MB-468; fold increase in potency of TMZ-POH compared to TMZ, MDA-MB-468)?
Answer: 6.3 −fold

Question: And the “colony formation (CFA)” value (MDA-MB-468; low micromolar concentrations, 48 hours, in words)?
Answer: prevented colony formation

Question: And the “additional survival after the termination of treatment” value [3, 11]?
Answer: 30 days

Question: What about the median survival [3, 11] of the same compound?
Answer: 50 days

Question: What about the “status of animals by day 36” value ([3]; 25 mg/kg once daily for 10 days, in words) of the same compound?
Answer: still alive with no obvious signs of distress

Question: And the “bioluminescent imaging after 10-day treatment period” value ([3]; 25 mg/kg once daily, in words)?
Answer: only small changes in radiance

Question: And the “increase of ROI radiance” value ([3]; between days 10 and 21, representative mouse, 25 mg/kg once daily 10 days)?
Answer: 1.7 fold

Question: And the ROI radiance ([3]; day 10, representative mouse)?
Answer: 1.11E7 photons per second per square

Question: And the ROI radiance ([3]; day 21, representative mouse)?
Answer: 1.92E7 photons per second per square

Question: What about the ROI radiance ([3]; day 43, representative mouse) of the same compound?
Answer: 1.88E8 photons per second per square
